Reference: patent publication US12410171B2, “Tropomyosin receptor kinase (TRK) degradation compounds and methods of use” (Cullgen (Shanghai), Inc., priority 2020, dated 2025)

These molecules were tested against T1, TPM3-TRKA fusion protein (Homo sapiens, UniProt P04629) (assay: TPM3-TRKA fusion protein levels in KM12 cells (Western blot)). Conditions: 16 h; TPM3-TRKA degradation in KM12 cells at 10 nM compound, category of percentage degradation; read-out: Degradation (at 10 nM).
T1 construct: The resulted chimeric proteins always retain the kinase domain of TRK proteins; TPM3 (fusion partner, N-terminal part of tropomyosin alpha-3, P06753); endogenous in cells; host or cells: KM12 colon cancer cells; the other entry of the earlier key: TPM3 (P06753, Tropomyosin alpha-3 chain)
T1 sequence (P04629 with tags, fused parts or gaps): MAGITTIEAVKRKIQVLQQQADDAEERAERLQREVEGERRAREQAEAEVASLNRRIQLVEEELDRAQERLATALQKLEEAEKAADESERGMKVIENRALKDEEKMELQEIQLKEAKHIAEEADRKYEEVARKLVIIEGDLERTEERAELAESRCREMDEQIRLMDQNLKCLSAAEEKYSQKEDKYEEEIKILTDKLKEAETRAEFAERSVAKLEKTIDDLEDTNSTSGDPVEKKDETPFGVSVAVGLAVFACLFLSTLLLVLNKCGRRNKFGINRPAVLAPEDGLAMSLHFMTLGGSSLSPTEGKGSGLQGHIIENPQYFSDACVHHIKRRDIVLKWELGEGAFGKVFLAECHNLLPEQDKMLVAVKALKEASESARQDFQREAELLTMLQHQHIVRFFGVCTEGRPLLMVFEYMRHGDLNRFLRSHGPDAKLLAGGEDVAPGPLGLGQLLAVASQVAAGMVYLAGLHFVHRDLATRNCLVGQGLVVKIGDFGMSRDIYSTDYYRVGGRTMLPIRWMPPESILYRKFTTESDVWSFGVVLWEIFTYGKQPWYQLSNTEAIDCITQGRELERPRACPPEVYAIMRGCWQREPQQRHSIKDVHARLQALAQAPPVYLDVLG
Type: cell-based
Description: KM12 cells were treated with DMSO or indicated compounds at 100 nM for 16 hours.
KM12 cells were treated with DMSO or indicated compounds at 0. 1 nM, 1 nM or 10 nM for 16 hours.
KM12 cells were treated with DMSO or indicated compounds at various concentrations for 16 hours.
KM12 cells were treated with DMSO or indicated compounds at various concentrations for 4 hours.
KM12 cells (a cancer model comprising a colon cancer cell line) were treated with DMSO or indicated compounds at various concentrations for 4 hours.
KM12 cells were treated with heterobifunctional compounds or their corresponding control compounds at 10 nM or 100 nM for 16 hours.
KM12 cells were treated with heterobifunctional compounds or their corresponding control compounds at 0.4-30 nM for 8-16 hours. […] Cells were authenticated using the short tandem repeat (STR) assays. […] Stable cell lines were established by lentivirus transduction, selected and maintained in medium containing 1 μg/mL puromycin (Beyotime Biotechnology).
Cultured cells were washed with cold PBS once and lysed in cold RIPA buffer supplemented with protease inhibitors and phosphatase inhibitors (Beyotime Biotechnology). The solutions were then incubated at 4° C. for 30 minutes with gentle agitation to fully lyse cells. For tumor tissues, tumors were cut into small pieces, milled with cold RIPA buffer using a mechanical homogenizer and lysed for 1 hour at 4° C. Cell lysates were centrifuged at 13,000 rpm for 10 minutes at 4° C. and pellets were discarded. Total protein concentrations in the lysates were determined by BCA assays (Beyotime Biotechnology). Cell lysates were mixed with Laemmli loading buffer to 1× and heated at 99° C. for 5 min. Proteins were resolved on SDS-PAGE and visualized by chemiluminescence. Images were taken by a ChemiDoc MP Imaging system (Bio-Rad). Protein bands were quantitated using the software provided by Bio-Rad.
With `O=C1CCC(N2C(=O)c3cccc(NCCOCCOCCC(=O)N4CCN(c5ccc(C(=O)Nc6n[nH]c7ccc(Cc8cc(F)cc(F)c8)cc67)c(NC6CCOCC6)c5)CC4)c3C2=O)C(=O)N1` (stereo not drawn) [CPD-032, N—(S-(3,5-Difluorobenzyl)-1H-indazol-3-yl)-4-(4-(3-(2-(2-((2-(2,6-dioxopiperidin-3-yl)-1,3-dioxoisoindolin-4-yl)amino)ethoxy)ethoxy)propanoyl)piperazin-1-yl)-2-((tetrahydro-2H-pyran-4-yl)amino)benzamide] the percent degradation of TPM3-TRKA protein at 0.01 µM was greater than 80%.
With `Cc1ncsc1-c1ccc(CNC(=O)[C@@H]2C[C@@H](O)CN2C(=O)[C@@H](NC(=O)CCCCCCC(=O)N2CCN(c3ccc(C(=O)Nc4n[nH]c5ccc(Cc6cc(F)cc(F)c6)cc45)c(NC4CCOCC4)c3)CC2)C(C)(C)C)cc1` [CPD-033, (2S,4R)-1-((S)-2-(8-(4-(4-((5-(3,5-Difluorobenzyl)-1H-indazol-3-yl)carbamoyl)-3-((tetrahydro-2H-pyran-4-yl)amino)phenyl)piperazin-1-yl)-8-oxooctanamido)-3,3-dimethylbutanoyl)-4-hydroxy-N-(4-(4-methylthiazol-5-yl)benzyl)pyrrolidine-2-carboxamide] the percent degradation of TPM3-TRKA protein at 0.01 µM was greater than 80%.
With `Cc1ncsc1-c1ccc(CNC(=O)[C@@H]2C[C@@H](O)CN2C(=O)[C@@H](NC(=O)CCCCCCCCC(=O)N2CCN(c3ccc(C(=O)Nc4n[nH]c5ccc(Cc6cc(F)cc(F)c6)cc45)c(NC4CCOCC4)c3)CC2)C(C)(C)C)cc1` [CPD-034, (28,4R)-1-((S)-2-(10-(4-(4-((5-(3,5-Difluorobenzyl)-1H-indazol-3-yl)carbamoyl)-3-((tetrahydro-2H-pyran-4-yl)amino)phenyl)piperazin-1-yl)-10-oxodecanamido)-3,3-dimethylbutanoyl)-4-hydroxy-N-(4-(4-methylthiazol-5-yl)benzyl)pyrrolidine-2-carboxamide] the percent degradation of TPM3-TRKA protein at 0.01 µM was less than 50%.
Molecule `Cc1ncsc1-c1ccc(CNC(=O)[C@@H]2C[C@@H](O)CN2C(=O)[C@@H](NC(=O)CCCCCCCCCC(=O)N2CCN(c3ccc(C(=O)Nc4n[nH]c5ccc(Cc6cc(F)cc(F)c6)cc45)c(NC4CCOCC4)c3)CC2)C(C)(C)C)cc1` [CPD-035, (25,4R)-1-((S)-2-(11-(4-(4-((5-(3,5-Difluorobenzyl)-1H-indazol-3-yl)carbamoyl)-3-((tetrahydro-2H-pyran-4-yl)amino)phenyl)piperazin-1-yl)-11-oxoundecanamido)-3,3-dimethylbutanoyl)-4-hydroxy-N-(4-(4-methylthiazol-5-yl)benzyl)pyrrolidine-2-carboxamide] has a percent degradation of TPM3-TRKA protein at 0.01 µM of less than 50%.
For `Cc1ncsc1-c1ccc(CNC(=O)[C@@H]2C[C@@H](O)CN2C(=O)[C@@H](NC(=O)CCCCCCCC(=O)N2CCN(c3ccc(C(=O)Nc4n[nH]c5ccc(Cc6cc(F)cc(F)c6)cc45)c(NC4CCOCC4)c3)CC2)C(C)(C)C)cc1` [CPD-037, (25,4R)-1-((S)-2-(9-(4-(4-((5-(3,5-Difluorobenzyl)-1H-indazol-3-yl)carbamoyl)-3-((tetrahydro-2H-pyran-4-yl)amino)phenyl)piperazin-1-yl)-9-oxononanamido)-3,3-dimethylbutanoyl)-4-hydroxy-N-(4-(4-methylthiazol-S-yl)benzyl)pyrrolidine-2-carboxamide], the percent degradation of TPM3-TRKA protein at 0.01 µM was 50 to 80%.
In the case of `Cc1ncsc1-c1ccc(CNC(=O)[C@@H]2C[C@@H](O)CN2C(=O)[C@@H](NC(=O)CCOCCOCCOCCC(=O)N2CCN(c3ccc(C(=O)Nc4n[nH]c5ccc(Cc6cc(F)cc(F)c6)cc45)c(NC4CCOCC4)c3)CC2)C(C)(C)C)cc1` [CPD-039, (28,4R)-1-((S)-2-(tert-butyl)-16-(4-(4-((5-(3,5-Difluorobenzyl)-1H-indazol-3-yl)carbamoyl)-3-((tetrahydro-2H-pyran-4-yl)amino)phenyl)piperazin-1-yl)-4,16-dioxo-7,10,13-trioxa-3-azahexadecanoyl)-4-hydroxy-N-(4-(4-methylthiazol-5-yl)benzyl)pyrrolidine-2-carboxamide], the percent degradation of TPM3-TRKA protein at 0.01 µM is reported as less than 50%.
Molecule `Cc1ncsc1-c1ccc(CNC(=O)[C@@H]2C[C@@H](O)CN2C(=O)[C@@H](NC(=O)CCOCCOCCOCCOCCC(=O)N2CCN(c3ccc(C(=O)Nc4n[nH]c5ccc(Cc6cc(F)cc(F)c6)cc45)c(NC4CCOCC4)c3)CC2)C(C)(C)C)cc1` [CPD-041, (2S,4R)-1-((S)-2-(tert-butyl)-19-(4-(4-((5-(3,5-Difluorobenzyl)-1H-indazol-3-yl)carbamoyl)-3-((tetrahydro-2H-pyran-4-yl)amino)phenyl)piperazin-1-yl)-4,19-dioxo-7,10,13,16-tetraoxa-3-azanonadecanoyl)-4-hydroxy-N-(4-(4-methylthiazol-5-yl)benzyl)pyrrolidine-2-carboxamide] has a percent degradation of TPM3-TRKA protein at 0.01 µM of less than 50%.
With `Cc1ncsc1-c1ccc(CNC(=O)[C@@H]2C[C@@H](O)CN2C(=O)[C@@H](NC(=O)CCCCC(=O)N2CCN(c3ccc(C(=O)Nc4n[nH]c5ccc(Cc6cc(F)cc(F)c6)cc45)c(NC4CCOCC4)c3)CC2)C(C)(C)C)cc1` [CPD-044] the percent degradation of TPM3-TRKA protein at 0.01 µM was 50 to 80%.
`Cc1ncsc1-c1ccc(CNC(=O)[C@@H]2C[C@@H](O)CN2C(=O)[C@@H](NC(=O)COCC(=O)N2CCN(c3ccc(C(=O)Nc4n[nH]c5ccc(Cc6cc(F)cc(F)c6)cc45)c(NC4CCOCC4)c3)CC2)C(C)(C)C)cc1` [CPD-045, (28,4R)-1-((S)-2-(2-(2-(4-(4-((5-(3,5˜Difluorobenzyl)-1H-indazol-3-yl)carbamoyl)-3-((tetrahydro-2H-pyran-4-yl)amino)phenyl)piperazin-1-yl)-2-oxoethoxy)acetamido)-3,3-dimethylbutanoyl)-4-hydroxy-N-(4-(4-methylthiazol-5-yl)benzyl)pyrrolidine-2-carboxamide] showed a percent degradation of TPM3-TRKA protein at 0.01 µM of 50 to 80%.
`Cc1ncsc1-c1ccc(CNC(=O)[C@@H]2C[C@@H](O)CN2C(=O)[C@@H](NC(=O)CCC(=O)N2CCN(c3ccc(C(=O)Nc4n[nH]c5ccc(Cc6cc(F)cc(F)c6)cc45)c(NC4CCOCC4)c3)CC2)C(C)(C)C)cc1` [CPD-046, (25,4R)-1-((S)-2-(4-(4-(4-((S-(3,5-Difluorobenzyl)-1H-indazol-3-yl)carbamoyl)-3,3-((tetrahydro-2H-pyran-4-yl)amino)phenyl)piperazin-1-yl)-4-oxobutanamido)-3,3-dimethylbutanoyl)-4-hydroxy-N-(4-(4-methylthiazol-S-yl)benzyl)pyrrolidine-2-carboxamide] was tested, and the percent degradation of TPM3-TRKA protein at 0.01 µM was 50 to 80%.
`Cc1ncsc1-c1ccc(CNC(=O)[C@@H]2C[C@@H](O)CN2C(=O)[C@@H](NC(=O)CCCCCC(=O)N2CCN(c3ccc(C(=O)Nc4n[nH]c5ccc(Cc6cc(F)cc(F)c6)cc45)c(NC4CCOCC4)c3)CC2)C(C)(C)C)cc1` [CPD-047, (28,4R)-1-((S)-2-(7-(4-(4-((5-(3,5-Difluorobenzyl)-1H-indazol-3-yl)carbamoyl)-3-((tetrahydro-2H-pyran-4-yl)amino)phenyl)piperazin-1-yl)-7-oxoheptanamido)-3,3-dimethylbutanoyl)-4-hydroxy-N-(4-(4-methylthiazol-5-yl)benzyl)pyrrolidine-2-carboxamide] showed a percent degradation of TPM3-TRKA protein at 0.01 µM greater than 80%.
